# Data reported in US4804502A, “Vitamin D compounds” (priority 1988, dated 1989).
# Assays:
# [1] = target: T1, 1,25-(OH)2 D3 receptors (calf intestine) (Bos taurus, UniProt Q28037); assay: Competitive Binding to 1,25-(OH)2 D3 Intestine Receptors, calf; conditions: a/b×100 from amounts displacing 50% of 1,25-(OH)2[3H]D3
# T1 construct: receptor prepared from intestine of chick, rat and calf; from tissue; host or cells: calf proximal small-intestine mucosa, cytosol, 35% ammonium sulphate precipitate
# T1 sequence (Q28037 1-426): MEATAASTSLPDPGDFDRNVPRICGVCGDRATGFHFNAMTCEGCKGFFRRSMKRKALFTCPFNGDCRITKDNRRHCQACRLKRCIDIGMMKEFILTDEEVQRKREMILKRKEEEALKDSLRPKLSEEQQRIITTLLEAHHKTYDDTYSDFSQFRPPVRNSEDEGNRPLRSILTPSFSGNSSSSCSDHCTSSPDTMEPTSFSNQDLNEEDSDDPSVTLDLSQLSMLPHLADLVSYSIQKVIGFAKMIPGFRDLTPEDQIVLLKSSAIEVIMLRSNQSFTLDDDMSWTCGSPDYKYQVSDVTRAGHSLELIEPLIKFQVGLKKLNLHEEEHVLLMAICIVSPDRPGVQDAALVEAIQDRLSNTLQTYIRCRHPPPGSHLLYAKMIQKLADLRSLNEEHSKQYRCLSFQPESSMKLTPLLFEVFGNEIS
# Method: (§1) The ability of vitamin D3 metabolites to compete for 1,25-(OH)[^3 H]D3 receptor binding sites was evaluated with receptor prepared from intestine of chick, rat and calf. […] Mucosa was collected and washed three times with 10 volumes of cold KTED buffer. The washed mucosa was homogenized in KTED buffer (20% w/v) using a Polytron Pt20 tissue disruptor. Cytosol was prepared by centrifugation of the homogenized mucosa at 300,000×g for 1 hour. […] The ammonium sulphate treated cytosol was centrifuged at 20,000×g for 10 minutes. The supernatant was discarded and the pellet lyophilized and stored at […] Prior to binding assay the pellet was resuspended in cold binding assay buffer containing 150 mM KCl, 50 mM NaPO4, 1.5 mM EDTA and 5 mM dithiothreitol.
# [2] = target: T2, 1,25-(OH)2 D3 receptors (chick intestine) (Gallus gallus, UniProt O42392); assay: Competitive Binding to 1,25-(OH)2 D3 Intestine Receptors, chick; conditions: a/b×100 from amounts displacing 50% of 1,25-(OH)2[3H]D3
# T2 construct: receptor prepared from intestine of chick, rat and calf; from tissue; host or cells: chick proximal small-intestine mucosa, cytosol, 35% ammonium sulphate precipitate
# T2 sequence (O42392 1-451): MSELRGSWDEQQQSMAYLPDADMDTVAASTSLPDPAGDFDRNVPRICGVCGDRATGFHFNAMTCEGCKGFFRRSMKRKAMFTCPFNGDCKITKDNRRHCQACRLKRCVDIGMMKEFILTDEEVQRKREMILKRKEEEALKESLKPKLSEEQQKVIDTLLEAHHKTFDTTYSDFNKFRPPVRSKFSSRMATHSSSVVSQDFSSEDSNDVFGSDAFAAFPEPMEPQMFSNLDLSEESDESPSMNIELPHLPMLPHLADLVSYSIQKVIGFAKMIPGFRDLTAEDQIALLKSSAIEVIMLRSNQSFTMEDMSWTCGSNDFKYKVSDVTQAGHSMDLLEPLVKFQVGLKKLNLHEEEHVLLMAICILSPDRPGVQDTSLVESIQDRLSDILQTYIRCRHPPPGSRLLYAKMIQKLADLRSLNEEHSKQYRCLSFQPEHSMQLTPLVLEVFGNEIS
# Method: as §1
# [3] = target: T3, 1,25-(OH)2 D3 receptors (rat intestine) (Rattus norvegicus, UniProt P13053); assay: Competitive Binding to 1,25-(OH)2 D3 Intestine Receptors, rat; conditions: a/b×100 from amounts displacing 50% of 1,25-(OH)2[3H]D3
# T3 construct: receptor prepared from intestine of chick, rat and calf; from tissue; host or cells: rat proximal small-intestine mucosa, cytosol, 35% ammonium sulphate precipitate
# T3 sequence (P13053 1-423): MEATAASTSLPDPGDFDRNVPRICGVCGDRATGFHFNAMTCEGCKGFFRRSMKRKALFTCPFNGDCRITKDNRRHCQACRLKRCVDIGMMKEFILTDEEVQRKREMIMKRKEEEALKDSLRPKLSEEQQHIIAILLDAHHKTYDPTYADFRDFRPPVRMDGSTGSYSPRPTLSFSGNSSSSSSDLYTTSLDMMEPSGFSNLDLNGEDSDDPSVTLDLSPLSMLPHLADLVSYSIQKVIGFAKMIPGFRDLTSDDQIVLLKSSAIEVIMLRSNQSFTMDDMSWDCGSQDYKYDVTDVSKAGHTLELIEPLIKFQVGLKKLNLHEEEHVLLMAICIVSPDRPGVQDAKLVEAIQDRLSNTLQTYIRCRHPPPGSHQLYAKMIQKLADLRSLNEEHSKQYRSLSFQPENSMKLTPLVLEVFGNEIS
# Method: The ability of vitamin D3 metabolites to compete for 1,25-(OH)[^3 H]D3 receptor binding sites was evaluated with receptor prepared from intestine of chick, rat and calf. The receptor was prepared by removing 10-12% of the small intestine immediately adjacent to the pyloric spincter which was washed immediately with cold buffer containing 500 mM KCl, 50 mM Tris, 1.5 mM EDTA, and 5 mM dithiothreitol, pH 7.4 (KTED buffer). Mucosa was collected and washed three times with 10 volumes of cold KTED buffer. The washed mucosa was homogenized in KTED buffer (20% w/v) using a Polytron Pt20 tissue disruptor. Cytosol was prepared by centrifugation of the homogenized mucosa at 300,000×g for 1 hour. Receptor was precipitated from the cytosol by the addition of ammonium sulphate to achieve 35% saturation. The ammonium sulphate treated cytosol was centrifuged at 20,000×g for 10 minutes. The supernatant was discarded and the pellet lyophilized and stored at […] Prior to binding assay the pellet was resuspended in cold binding assay buffer containing 150 mM KCl, 50 mM NaPO4, 1.5 mM EDTA and 5 mM dithiothreitol.
# [4] = system: intestinal calcium absorption (duodenum); assay: Stimulation of Intestinal Calcium Absorption in Rat (intestinal 45Ca transport, everted gut sac); conditions: intrajugular, 18 h
# [5] = system: bone calcium mobilization; assay: Bone Calcium Mobilization in Rat (plasma Ca increase); format: in vivo; conditions: intrajugular, 18 h
# Method: Controls received carrier alone. Bone Ca resorption (BCR) was estimated by measuring the blood Ca increase in the treated rats. Blood was collected in heparinized tubes and centrifuged. The resulting plasma was measured for calcium concentration by atomic absorption spectroscopy. Since rats were fed a diet essentially devoid of Ca, plasma Ca increases reflected mobilization of Ca from bone, not intestinal Ca absorption.
Compound,"Competitive Binding to 1,25-(OH)2 D3 Receptors - % of 1,25-(OH)2 D3 Effect, calf intestine [1]","Competitive Binding to 1,25-(OH)2 D3 Receptors - % of 1,25-(OH)2 D3 Effect, chick intestine [2]","Competitive Binding to 1,25-(OH)2 D3 Receptors - % of 1,25-(OH)2 D3 Effect, rat intestine [3]","% of 1,25-(OH)2 D3 Effect in Rat, intestinal calcium absorption ([4]; 15.5 ng/rat)","% of 1,25-(OH)2 D3 Effect in Rat, bone calcium mobilization ([5]; 15.5 ng/rat)","% of 1,25-(OH)2 D3 Effect in Rat, intestinal calcium absorption ([4]; 12.5 ng/rat)","% of 1,25-(OH)2 D3 Effect in Rat, bone calcium mobilization ([5]; 12.5 ng/rat)"
"C=C1/C(=C\C=C2/CCC[C@]3(C)[C@@H]([C@H](C)CC#CC(C)(C)O)CC[C@@H]23)C[C@@H](O)C[C@@H]1O [Compound A, 1α,25-dihydroxy-23-yne-cholecalciferol]",47%,60%,39%,95%,15%,–,–
C=C1/C(=C\C=C2/CCC[C@]3(C)[C@@H]([C@H](C)CC#CC(O)(C(F)(F)F)C(F)(F)F)CC[C@@H]23)C[C@@H](O)C[C@@H]1O [Compound B],62%,47%,142%,–,–,124%,0%
